Test results as given in ChEMBL document CHEMBL5608163, “Structure modification of anoplin for fighting resistant bacteria” (Eur J Med Chem, 2024).
Values after ≈ are worked out from the molar mass of the structure shown. Square brackets hold non-standard residues; d marks the D form. Peptide text beside a SMILES is read from it. 2Nal = N[C@@H](Cc1ccc2ccccc2c1)C(=O)O; Cha = N[C@@H](CC1CCCCC1)C(=O)O

Experiments:
Escherichia coli [1] = experiment: Antibacterial acitivity against Escherichia coli DH5a assessed as bacterial growth inhibition incubated for 24 hrs by broth micro-dilution method; type: functional
Zymomonas mobilis = experiment: Antibacterial activity against Zymomonas mobilis ATCC 10988 assessed as reduction in bacterial growth incubated for 24 hrs by broth micro-dilution method; type: functional
Pseudomonas aeruginosa [2] = experiment: Antimicrobial activity against Pseudomonas aeruginosa assessed as inhibition of microbial growth incubated for 24 hrs by microdilution method; type: functional
Bacillus subtilis = experiment: Antimicrobial activity against Bacillus subtilis assessed as microbial growth inhibition incubated for 24 hrs by broth micro-dilution method; type: functional
[3] = Hemolytic activity against human Red blood cells assessed as cell lysis; type: toxicity, cell-based, Erythrocyte
[4] = test system: Mycolicibacterium smegmatis; experiment: Antimycobacterial activity against Mycobacterium smegmatis mc2 155 assessed as reduction in bacterial cell growth incubated for 24 hrs by resazurin dye based broth microdilution method; type: functional
Staphylococcus aureus = experiment: Antibacterial activity against methicillin-resistant Staphylococcus aureus ATCC 33591 assessed as reduction in bacterial growth incubated for 16 to 24 hrs by agar dilution method; type: functional; settings: time 16-24 hrs
[5] = Hemolytic activity in human RBC; type: toxicity, cell-based, Erythrocyte; settings: red blood cells
[6] = Hemolytic activity against Red blood cells (unknown origin) incubated for 1 hr by spectrophotometric analysis; type: toxicity, cell-based, Erythrocyte
Enterococcus faecium = experiment: Antibacterial activity against vancomycin resistant Enterococcus faecium NCTC 12204 assessed as reduction in bacterial growth by microdilution broth method; type: functional
Pseudomonas aeruginosa [7] = experiment: Antibacterial activity against Pseudomonas aeruginosa ATCC 15442 assessed as reduction in bacterial cell growth incubated for 18 to 24 hrs by two fold serial microdilution method; type: functional; settings: time 18-24 hrs
Escherichia coli [8] = experiment: Antibacterial activity against Escherichia coli ATCC 25922 assessed as reduction in bacterial growth incubated for 18 to 24 hrs by broth microdilution method; type: functional; settings: time 18-24 hrs

SMILES: CC[C@H](C)[C@H](NC(=O)[C@H](Cc1ccccc1)NC(=O)[C@H](CCCCN)NC(=O)[C@H](CC(C)C)NC(=O)[C@H](CC(C)C)NC(=O)CN)C(=O)N[C@@H](CCCCN)C(=O)N[C@@H](CCCNC(=N)N)C(=O)N[C@@H](CC(C)C)C(=O)N[C@@H](CC(C)C)C(N)=O (H-GLLKFIKRLL-NH2)
- MIC (Escherichia coli [1]): 167 µM (≈ 200 µg/mL)
- MIC (Zymomonas mobilis): 17.4 µM (≈ 20.9 µg/mL)
- MIC (Pseudomonas aeruginosa [2]): 2.5 µM
- MIC (Bacillus subtilis): 167 µM (≈ 200 µg/mL)
- HC50 [3]: > 167 µM
- MIC [4]: 4.2 µM (≈ 5.04 µg/mL)

SMILES: CC[C@H](C)[C@H](NC(=O)[C@H](CCCCN)NC(=O)[C@H](CC(C)C)NC(=O)[C@H](CC(C)C)NC(=O)CN)C(=O)N[C@H](C(=O)N[C@@H](CCCCN)C(=O)N[C@@H](CCCCN)C(=O)N[C@@H](CC(C)C)C(=O)N[C@@H](CC(C)C)C(N)=O)[C@@H](C)CC (H-GLLKIIKKLL-NH2)
- MIC (Escherichia coli [1]): 83.7 µM (≈ 95.2 µg/mL)
- MIC (Zymomonas mobilis): 2.5 µM (≈ 2.84 µg/mL)
- MIC (Pseudomonas aeruginosa [2]): 2.5 µM
- MIC (Bacillus subtilis): 5.9 µM (≈ 6.71 µg/mL)
- HC50 [3]: > 167 µM
- MIC [4]: 16.7 µM (≈ 19 µg/mL)

SMILES: CC[C@H](C)[C@H](NC(=O)[C@H](CCCCN)NC(=O)[C@H](CC(C)C)NC(=O)[C@H](CC(C)C)NC(=O)CN)C(=O)N[C@H](C(=O)N[C@@H](CCCCN)C(=O)N[C@@H](CCCNC(=N)N)C(=O)N[C@@H](CC(C)C)C(=O)N[C@@H](CC(C)C)C(N)=O)[C@@H](C)CC (H-GLLKIIKRLL-NH2)
- MIC (Escherichia coli [1]): 172 µM (≈ 200 µg/mL)
- MIC (Zymomonas mobilis): 33.9 µM (≈ 39.5 µg/mL)
- MIC (Pseudomonas aeruginosa [2]): 2.6 µM
- MIC (Bacillus subtilis): 8.6 µM (≈ 10 µg/mL)
- HC50 [3]: > 172 µM
- MIC [4]: 4.3 µM (≈ 5.01 µg/mL)

SMILES: CC[C@H](C)[C@H](NC(=O)[C@H](CCCCN)NC(=O)[C@H](CCCCN)NC(=O)[C@H](CC(C)C)NC(=O)[C@H](CC(C)C)NC(=O)CN)C(=O)N[C@@H](CCCCN)C(=O)N[C@@H](CCCNC(=N)N)C(=O)N[C@@H](CC(C)C)C(=O)N[C@@H](CC(C)C)C(N)=O (H-GLLKKIKRLL-NH2)
- MIC (Escherichia coli [1]): 170 µM (≈ 200 µg/mL)
- MIC (Zymomonas mobilis): 4.2 µM (≈ 4.96 µg/mL)
- MIC (Pseudomonas aeruginosa [2]): 5.9 µM
- MIC (Bacillus subtilis): 170 µM (≈ 200 µg/mL)
- HC50 [3]: > 170 µM
- MIC [4]: 0.9 µM (≈ 1.06 µg/mL)

SMILES: CC(C)C[C@H](NC(=O)CN)C(=O)N[C@@H](CC(C)C)C(=O)N[C@@H](CCCCN)C(=O)N[C@@H](CCCCN)C(=O)N[C@@H](Cc1ccc2ccccc2c1)C(=O)N[C@@H](CCCCN)C(=O)N[C@H](C(=O)N[C@@H](CC(C)C)C(=O)N[C@@H](CC1CCCCC1)C(N)=O)[C@@H](C)O (H-GLLKK[2Nal]KTL[Cha]-NH2)
- MIC (Staphylococcus aureus): 9.5 µM (≈ 11.9 µg/mL)
- HC50 [5]: 26.6 µM
- HC50 at 1 h [6]: 26.6 µM
- MIC (Enterococcus faecium): 4.6 µM (≈ 5.75 µg/mL)
- MIC (Pseudomonas aeruginosa [7]): 6.6 µM (≈ 8.25 µg/mL)
- MIC (Escherichia coli [8]): 9.5 µM (≈ 11.9 µg/mL)

SMILES: CC[C@H](C)[C@H](NC(=O)[C@H](CCCNC(=N)N)NC(=O)[C@H](CCCCN)NC(=O)[C@H](CC(C)C)NC(=O)[C@H](CC(C)C)NC(=O)CN)C(=O)N[C@@H](CCCCN)C(=O)N[C@@H](CCCCN)C(=O)N[C@@H](CC(C)C)C(=O)N[C@@H](CC1CCCCC1)C(N)=O (H-GLLKRIKKL[Cha]-NH2)
- MIC (Staphylococcus aureus): 9.5 µM (≈ 11.6 µg/mL)
- HC50 [5]: 12.4 µM
- HC50 at 1 h [6]: 12.4 µM
- MIC (Enterococcus faecium): 9.5 µM (≈ 11.6 µg/mL)
- MIC (Pseudomonas aeruginosa [7]): 4.6 µM (≈ 5.62 µg/mL)
- MIC (Escherichia coli [8]): 9.5 µM (≈ 11.6 µg/mL)

SMILES: CC[C@H](C)[C@H](NC(=O)[C@H](CCCCN)NC(=O)[C@H](CCCCN)NC(=O)[C@H](CC(C)C)NC(=O)[C@H](CC1CCCCC1)NC(=O)CN)C(=O)N[C@@H](CCCCN)C(=O)N[C@@H](CCCCN)C(=O)N[C@@H](CC(C)C)C(=O)N[C@@H](CC1CCCCC1)C(N)=O (H-G[Cha]LKKIKKL[Cha]-NH2)
- MIC (Staphylococcus aureus): 3.2 µM (≈ 3.94 µg/mL)
- HC50 [5]: 0.5 µM
- HC50 at 1 h [6]: 0.5 µM
- MIC (Enterococcus faecium): 3.2 µM (≈ 3.94 µg/mL)
- MIC (Pseudomonas aeruginosa [7]): 3.2 µM (≈ 3.94 µg/mL)
- MIC (Escherichia coli [8]): 4.6 µM (≈ 5.67 µg/mL)

SMILES: CC(C)C[C@H](NC(=O)[C@H](CC(C)C)NC(=O)[C@@H](NC(=O)[C@H](CCCCN)NC(=O)[C@H](Cc1ccc2ccccc2c1)NC(=O)[C@H](CCCCN)NC(=O)[C@H](CCCCN)NC(=O)[C@H](CC(C)C)NC(=O)[C@H](CC1CCCCC1)NC(=O)CN)[C@@H](C)O)C(N)=O (H-G[Cha]LKK[2Nal]KTLL-NH2)
- MIC (Staphylococcus aureus): 28.4 µM (≈ 35.5 µg/mL)
- HC50 [5]: 15.3 µM
- HC50 at 1 h [6]: 15.3 µM
- MIC (Enterococcus faecium): 9.5 µM (≈ 11.9 µg/mL)
- MIC (Pseudomonas aeruginosa [7]): 9.5 µM (≈ 11.9 µg/mL)
- MIC (Escherichia coli [8]): 9.5 µM (≈ 11.9 µg/mL)
